What all share (format): cell-based
In assay [1] the target is T1, F508del-CFTR (Homo sapiens, UniProt P13569, DEL508-508).
T1 construct: F508del-CFTR was endogenously expressed in CFBE41o^− cells; endogenous in cells; host or cells: CFBE41o-
In words: Dose response, potentiation of forskolin-activated F508del-CFTR chloride channel activity in CFBE41o- cells (fluorescence membrane potential assay). The note with it: low temperature (27 degrees Celsius) correction, read-out: potency in potentiating cyclic AMP dependent F508del-CFTR chloride channel activity. As to the method: In these studies, F508del-CFTR was endogenously expressed in CFBE41o^− cells and it's trafficking defect corrected by low temperature (27 degrees Celsius) incubation. The fold increase in cyclic AMP dependent F508del-CFTR mediated chloride channel activity induced by potentiator treatment was determined using the fluorescence-based, membrane potential difference assay previously described.

The subject of assay [2] is primary differentiated human bronchial epithelial cultures. In words: Bead tracking assay of mucociliary movement, primary bronchial epithelial cultures exposed to cigarette smoke extract. As to the method: Compound 11 was tested in an in-vitro model of COPD. In this model, primary differentiated human bronchial epithelial cultures were exposed to cigarette smoke extract (4,5). Exposure to cigarette smoke extract (CSE) led to mucostasis and slowed mucociliary movement (FIG. 1(A) and (B)). […] Changes in mucociliary movement were determined as in our previous publication (7), i.e., by tracking the speed of fluorescent beads added to the surface of the airway cultures. The relative rescue effect of Compound 11 compared favourably relative to the competitor, the FDA approved CFTR potentiator marketed as Ivacaftor (VX-770).
Mature bronchial epithelial cultures, seeded on 24-well transwell inserts, derived from non-smoker donors of variable ages were received from the University of Iowa and cultured at air-liquid interface (ALI) using UltraG medium. A total of 6 inserts per donor were cultured, and all inserts from a single donor were selected to receive chronic drug and toxin treatment. Ahead of chronic treatment, cultures were subject to mucomist to reduce the volume and viscosity of the mucous layer ahead of imaging. Cultures were first washed twice with 200 uL HBSS (Wisent) applied apically to the transwell, each wash for 10 minutes at 37 degrees and 5% CO2. Cells were then incubated with 10 μM N-acetyl-cysteine (source?) dissolved in HBSS (Wisent) for 30 minutes, followed by a final HBSS wash as described previously. The toxin treatment consisted of either cigarette smoke extract (CSE) prepared in 100% DMSO (University of Alabama at Birmingham), dissolved at a concentration of 2% (v/v) in UltraG medium, with an equivalent concentration of DMSO alone serving as a control. The chronic drug treatment was co-applied with the toxin treatment, which included either VX-770 (Vertex) or SK-POT, aka Compound 11 (both prepared in 100% DMSO) dissolved in UltraG medium at a final concentration of 1 μm. There were a total of 6 chronic treatments, with each of the 6 inserts per donor receiving a different chronic treatment. Bronchial epithelia were incubated with the chronic treatment, applied apically, for 24 hours at 37 degrees C. and 5% CO2. After 24 hours, green fluorescent microspheres (brand?) dissolved in HBSS at a concentration of 0.05% (v/v) were applied apically; cultures were incubated with the microspheres for 45 minutes. The toxin and potentiator treatments were carried forth into the microsphere solution.
Inserts were then imaged at room temperature by epifluorescence microscopy (Zeiss or Olympus). The basic replicate of the assay consists of a 5-second video captured in the green channel and 40-60 frames per second; Z-position was adjusted ahead of each video to ensure beads in the airway surface liquid stratum immediately above the cilia were being captured. 5 videos were captured per insert/conditions, representing the centre and 4 corners of the insert. 2 sets of 5 videos were captured per insert/condition: one at baseline, and one 20 minutes following CFTR stimulation by forskolin at a concentration of 10 μM. Inserts were incubated at room temperature after forskolin addition.
Videos were captured using Volocity software and exported as one TIF file per frame. Frames were then re-compiled into complete videos using Arivis 4D software. Using an algorithm as previously described in Wu et al. 2017, microspheres were highlighted by adjusting two parameters: fluorescence intensity and diameter. […]

Assay [3] addresses Wt-CFTR (Homo sapiens, UniProt P13569). As to the kind of experiment: Calu-3 CSE experiments, FLiPR assay of CFTR channel activity. The arrangement: this airway epithelial cell line endogenously expresses this channel; endogenous in cells; host or cells: Calu-3. As to the method: Addition of CFTR-inhibitor indicated with grey arrow. Superimposed, we show the effect of acute co-application of VX-770 (open squares) or SK-POT (open triangles) with forskolin. […] Only SK-POT rescued CFTR channel function in the presence of cigarette smoke extract.
Calu-3 cells were cultured using EMEM (Wisent) supplemented with FBS at 20% (v/v) and 1× Penicillin/Streptomycin (Wisent). Calu-3 cells were seeded on clear-bottom, black-walled 96 well plates (Costar, Corning) at a density of 10,000 cells/well and cultured for 2 days post-confluence. Cells then received the chronic treatment of toxin and potentiator. The toxin treatment consisted of either cigarette smoke extract (CSE) prepared in 100% DMSO (University of Alabama at Birmingham), dissolved at a concentration of 2% (v/v) in Calu-3 medium, with an equivalent concentration of DMSO alone serving as the toxin control. The chronic drug treatment was co-applied with the toxin, which included either VX-770 or Compound 11 (both prepared in 100% DMSO) dissolved in Calu-3 medium at a final concentration of 1 μm. VX-770 (Vertex) and Compound 11 solutions were prepared from 1 mM stocks. The control for the drug treatment was the vehicle, DMSO at an equivalent volume. Combining the two toxin treatments and three drug treatments, a total of six treatments were applied chronically to 4 wells per condition, for a total of 24 wells receiving chronic treatment.
Cells were cultured for an additional 24 hours after chronic treatment application, after which cells were incubated with FLiPR assay buffer. The FLiPR assay buffer consisted of blue FLiPR dye (Molecular Devices) dissolved at a concentration of 0.5 mg/mL in chloride-free buffer (150 mM NMDG, 150 mM gluconolactone, 3 mM potassium gluconate, 300 mOsm and pH 7.38). Buffer was incubated with cells at 37 degrees and 5% CO2 for 35 minutes. CFTR function was assessed by measuring changes in fluorescence activity after acute CFTR channel activation by addition of cAMP agonist forskolin dissolved in chloride-free buffer to a final concentration 1 μm, using the SpectraMax i3x multimodal plate reader. Fluorescence readings (excitation 530 nm; emission 560 nm) for each well were taken at 30-second intervals for 5 minutes (baseline) or 10 minutes (activation). CFTR activity was then terminated by addition of CFTR-inhibitor 172 dissolved in chloride-free buffer to a concentration of 10 μm, to further verify the specificity of the response to CFTR activity. Fluorescence changes were recorded at 30-second intervals for another 10 minutes. In analysis, all fluorescence values were normalized per well to the final reading prior to the addition of forskolin and expressed as a percentage of this reading.

The target in assay [4] is T2, wild-type human CFTR (Homo sapiens, UniProt P13569).
T2 construct: host or cells: HEK-293
T2 sequence (P13569 whole entry): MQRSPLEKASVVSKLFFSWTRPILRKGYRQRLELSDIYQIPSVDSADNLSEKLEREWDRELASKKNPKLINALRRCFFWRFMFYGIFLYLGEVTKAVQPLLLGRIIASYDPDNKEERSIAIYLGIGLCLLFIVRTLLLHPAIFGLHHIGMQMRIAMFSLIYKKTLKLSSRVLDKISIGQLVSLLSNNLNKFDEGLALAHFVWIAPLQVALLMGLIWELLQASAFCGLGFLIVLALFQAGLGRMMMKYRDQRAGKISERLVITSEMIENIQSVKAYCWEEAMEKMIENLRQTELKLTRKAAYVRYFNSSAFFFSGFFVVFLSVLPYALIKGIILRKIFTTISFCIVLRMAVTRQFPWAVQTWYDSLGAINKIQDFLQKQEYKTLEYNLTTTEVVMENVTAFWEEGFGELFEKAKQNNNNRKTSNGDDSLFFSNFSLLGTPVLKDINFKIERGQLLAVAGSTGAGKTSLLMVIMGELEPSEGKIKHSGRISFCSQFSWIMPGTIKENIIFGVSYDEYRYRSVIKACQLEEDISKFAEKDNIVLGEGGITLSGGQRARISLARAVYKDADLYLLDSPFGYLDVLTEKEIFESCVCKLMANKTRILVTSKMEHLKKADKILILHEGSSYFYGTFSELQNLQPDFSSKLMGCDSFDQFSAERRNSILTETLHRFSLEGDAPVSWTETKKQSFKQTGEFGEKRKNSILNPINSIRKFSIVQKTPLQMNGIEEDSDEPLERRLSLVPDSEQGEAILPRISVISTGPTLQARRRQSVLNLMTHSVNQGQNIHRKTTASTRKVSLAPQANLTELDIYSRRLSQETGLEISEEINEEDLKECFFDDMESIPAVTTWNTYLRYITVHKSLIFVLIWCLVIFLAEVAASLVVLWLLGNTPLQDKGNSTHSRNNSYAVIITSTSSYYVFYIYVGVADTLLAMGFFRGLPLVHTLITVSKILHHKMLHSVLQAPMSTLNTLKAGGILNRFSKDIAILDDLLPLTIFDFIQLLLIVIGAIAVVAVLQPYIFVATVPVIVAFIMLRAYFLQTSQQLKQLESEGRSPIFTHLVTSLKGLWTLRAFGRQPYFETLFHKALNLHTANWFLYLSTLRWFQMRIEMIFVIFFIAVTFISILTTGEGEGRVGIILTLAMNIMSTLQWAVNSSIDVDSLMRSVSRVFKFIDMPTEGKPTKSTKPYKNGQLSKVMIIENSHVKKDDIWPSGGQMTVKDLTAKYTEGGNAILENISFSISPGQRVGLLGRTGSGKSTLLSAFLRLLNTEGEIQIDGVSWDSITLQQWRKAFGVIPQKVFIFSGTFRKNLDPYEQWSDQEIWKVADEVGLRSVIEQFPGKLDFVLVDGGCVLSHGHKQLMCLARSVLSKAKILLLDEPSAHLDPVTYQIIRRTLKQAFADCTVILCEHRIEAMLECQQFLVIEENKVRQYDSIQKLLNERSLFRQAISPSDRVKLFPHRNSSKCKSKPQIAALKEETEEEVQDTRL
In words: Cell-attached patch clamp of CFTR channel potentiation in HEK-293 cells. The settings on record: one active channel with forskolin alone.
Experimental: HEK-293 cells stably expressing wild-type human CFTR in patch clamp studies of single channel activity were used. […] CFTR Cl^− channels were recorded in cell-attached membrane patches using an Axopatch 200A patch clamp amplifier and pCLAMP software (both from Molecular Devices, Sunnyvale, CA). The pipette and bath (extracellular) solutions contained 140 mm N-methyl-d-glucamine, 140 mm aspartic acid, 5 mm CaCl2, 2 mm MgSO4, and 10 mm TES, adjusted to pH 7.3 with Tris ([Cl^−]: 10 mM). The bath was maintained at room temperature.
In order to activate Wt-CFTR channels, 10 uM forskolin was added to the bath. […] To determine channel number, we used the maximum number of simultaneous channel openings observed during the experimental procedure. Single channel recordings were filtered and digitized data as described previously. To measure single-channel current amplitude, Gaussian distributions were fitted to current amplitude histograms. To measure Po, lists of open and closed times were created using a half-amplitude crossing criterion for event detection, and dwell time histograms were constructed and fitted. For the purpose of illustration, single-channel records were filtered at 500 Hz.

The source of these data is patent US20260055065A1, “PYRIDAZINONE COMPOUNDS WHICH MODULATE MUTANT PROTEINS FOR TREATING RESPIRATORY DISEASES” (The Hospital for Sick Children, priority 2022, published 2026).

Wt-CFTR, sequence (P13569 whole entry): as above
T1 sequence (P13569 with tags, fused parts or gaps DEL508-508): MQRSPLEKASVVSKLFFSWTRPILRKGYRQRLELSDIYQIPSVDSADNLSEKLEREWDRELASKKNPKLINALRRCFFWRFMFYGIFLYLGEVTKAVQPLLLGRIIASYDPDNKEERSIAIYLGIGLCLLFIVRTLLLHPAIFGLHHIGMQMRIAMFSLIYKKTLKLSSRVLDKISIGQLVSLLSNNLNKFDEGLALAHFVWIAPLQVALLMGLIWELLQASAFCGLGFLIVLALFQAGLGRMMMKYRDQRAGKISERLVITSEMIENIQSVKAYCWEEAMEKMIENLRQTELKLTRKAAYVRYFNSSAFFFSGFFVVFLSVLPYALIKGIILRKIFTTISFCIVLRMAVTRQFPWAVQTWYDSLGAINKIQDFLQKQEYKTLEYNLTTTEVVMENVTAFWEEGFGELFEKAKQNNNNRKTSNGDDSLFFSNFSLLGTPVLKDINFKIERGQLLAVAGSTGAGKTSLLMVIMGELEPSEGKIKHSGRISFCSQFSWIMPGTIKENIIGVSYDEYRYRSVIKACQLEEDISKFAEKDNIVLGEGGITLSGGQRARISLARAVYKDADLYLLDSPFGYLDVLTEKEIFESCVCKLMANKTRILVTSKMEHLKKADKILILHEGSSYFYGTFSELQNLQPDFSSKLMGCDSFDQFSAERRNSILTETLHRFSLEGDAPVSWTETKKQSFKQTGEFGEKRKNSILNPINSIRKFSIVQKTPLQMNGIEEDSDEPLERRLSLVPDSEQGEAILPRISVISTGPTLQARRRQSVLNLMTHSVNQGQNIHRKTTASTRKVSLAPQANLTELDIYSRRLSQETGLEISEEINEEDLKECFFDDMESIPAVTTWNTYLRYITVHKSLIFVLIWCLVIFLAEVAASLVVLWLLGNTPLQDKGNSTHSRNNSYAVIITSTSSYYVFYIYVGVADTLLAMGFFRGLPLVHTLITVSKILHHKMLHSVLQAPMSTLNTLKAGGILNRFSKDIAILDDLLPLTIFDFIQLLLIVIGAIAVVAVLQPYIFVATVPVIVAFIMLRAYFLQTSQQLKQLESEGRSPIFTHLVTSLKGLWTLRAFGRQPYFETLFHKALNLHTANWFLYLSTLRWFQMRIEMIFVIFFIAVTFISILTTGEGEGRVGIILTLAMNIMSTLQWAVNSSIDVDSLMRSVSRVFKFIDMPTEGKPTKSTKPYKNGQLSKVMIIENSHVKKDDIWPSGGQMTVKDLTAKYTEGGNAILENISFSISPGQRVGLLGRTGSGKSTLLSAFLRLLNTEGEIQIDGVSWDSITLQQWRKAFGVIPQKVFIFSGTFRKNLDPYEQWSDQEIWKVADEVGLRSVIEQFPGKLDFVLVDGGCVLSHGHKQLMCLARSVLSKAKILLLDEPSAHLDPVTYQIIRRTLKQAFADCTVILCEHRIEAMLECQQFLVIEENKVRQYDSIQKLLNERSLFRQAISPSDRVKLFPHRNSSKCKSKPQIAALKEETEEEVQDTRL

Take `CC(C)(C)c1cc(C(C)(C)C)c(NC(=O)c2c[nH]c3ccccc3c2=O)cc1O` [VX-770, reference compound]: the EC50 in assay [1] amounted to 32 nM. The “mucostasis / bead velocity in CSE-treated cultures” value in assay [2] (CSE 2%, compound 1 μM for 24 hours, forskolin 10 μM) is recorded as “a significant increase in the forskolin induced response in CSE-treated cultures after VX-770 addition was not observed”. The “bead velocity under control conditions” value in assay [2] (no CSE, compound added with vehicle for 24 hours) is on record as “Neither VX-770 nor Compound 11 had any impact on bead velocity”. Moreover, the “forskolin-activated CFTR channel activity after CSE exposure” value in assay [3] (Calu-3, CSE 2%, compounds 1 uM) is “only (SK-POT) treatment led to a significant increase”. Besides, the EC90 in assay [3] (Calu-3, CFTR channel potentiation, read-out: approximate EC90) was roughly 1000 nM.
As for CFTRinh-172, in assay [4], the “number of active channels” value was “significant decrease in the number of active channels”.
